Legend:
[1] = target: T1, Recombinant purified human JAK3 (Homo sapiens, UniProt P52333); assay: JAK3 kinase inhibitory activity, ADP-Glo kinase assay (Promega V9441); assay type: biochemical; conditions: ATP 5 uM, 4 ng JAK3 per reaction, 1 hour 30 °C, chemiluminescence
T1 construct: purchased Promega V9441
T1 sequence (P52333 1-1124): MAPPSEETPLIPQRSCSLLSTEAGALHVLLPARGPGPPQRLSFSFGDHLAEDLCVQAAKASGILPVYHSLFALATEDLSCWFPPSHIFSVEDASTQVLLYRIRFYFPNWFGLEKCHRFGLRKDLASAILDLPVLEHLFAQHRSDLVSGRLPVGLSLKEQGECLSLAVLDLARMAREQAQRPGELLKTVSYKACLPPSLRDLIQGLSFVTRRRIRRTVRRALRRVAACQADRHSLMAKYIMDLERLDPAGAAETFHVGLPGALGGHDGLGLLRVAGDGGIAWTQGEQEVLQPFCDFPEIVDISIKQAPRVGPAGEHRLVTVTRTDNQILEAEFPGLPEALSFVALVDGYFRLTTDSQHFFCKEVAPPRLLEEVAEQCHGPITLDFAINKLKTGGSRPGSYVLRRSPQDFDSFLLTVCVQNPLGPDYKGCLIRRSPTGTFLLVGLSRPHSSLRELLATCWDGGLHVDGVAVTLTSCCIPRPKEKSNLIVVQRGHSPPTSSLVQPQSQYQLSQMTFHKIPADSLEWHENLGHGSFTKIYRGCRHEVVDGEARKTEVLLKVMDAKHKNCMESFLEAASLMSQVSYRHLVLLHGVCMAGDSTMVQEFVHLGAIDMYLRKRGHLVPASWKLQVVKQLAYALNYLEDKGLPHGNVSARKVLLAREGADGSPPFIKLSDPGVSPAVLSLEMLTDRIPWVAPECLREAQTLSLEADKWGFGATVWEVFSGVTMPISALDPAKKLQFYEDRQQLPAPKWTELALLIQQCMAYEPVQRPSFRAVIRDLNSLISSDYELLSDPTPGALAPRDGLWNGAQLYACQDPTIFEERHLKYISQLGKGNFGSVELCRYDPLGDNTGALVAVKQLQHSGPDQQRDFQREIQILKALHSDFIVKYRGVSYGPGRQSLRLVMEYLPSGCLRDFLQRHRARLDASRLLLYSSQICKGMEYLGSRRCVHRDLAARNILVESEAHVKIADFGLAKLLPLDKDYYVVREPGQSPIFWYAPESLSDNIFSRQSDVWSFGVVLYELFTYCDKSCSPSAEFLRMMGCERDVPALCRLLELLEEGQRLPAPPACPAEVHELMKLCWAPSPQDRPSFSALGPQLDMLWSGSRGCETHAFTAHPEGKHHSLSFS
Outline: (§1)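 Recombinant human kinases in Tris pH 7.5 buffer with MgCl2, BSA and DTT (MnCl2 added for BTK), 4 ng JAK3 or 8 ng BTK per reaction. Poly(Glu4,Tyr1) 0.2 µg/µL with 5 µM (JAK3) or 10 µM (BTK) ATP, 1% DMSO, 1 h at 30 °C. ADP-Glo luminescence used to derive IC50.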

[2] = target: T2, Recombinant purified human BTK (Homo sapiens, UniProt Q06187); assay: BTK kinase inhibitory activity, ADP-Glo kinase assay (Promega V9071); assay type: biochemical; conditions: ATP 10 uM, 8 ng BTK per reaction, 1 hour 30 °C, chemiluminescence
T2 construct: purchased Promega V9071
Outline: as §1

T2 sequence (Q06187 whole entry): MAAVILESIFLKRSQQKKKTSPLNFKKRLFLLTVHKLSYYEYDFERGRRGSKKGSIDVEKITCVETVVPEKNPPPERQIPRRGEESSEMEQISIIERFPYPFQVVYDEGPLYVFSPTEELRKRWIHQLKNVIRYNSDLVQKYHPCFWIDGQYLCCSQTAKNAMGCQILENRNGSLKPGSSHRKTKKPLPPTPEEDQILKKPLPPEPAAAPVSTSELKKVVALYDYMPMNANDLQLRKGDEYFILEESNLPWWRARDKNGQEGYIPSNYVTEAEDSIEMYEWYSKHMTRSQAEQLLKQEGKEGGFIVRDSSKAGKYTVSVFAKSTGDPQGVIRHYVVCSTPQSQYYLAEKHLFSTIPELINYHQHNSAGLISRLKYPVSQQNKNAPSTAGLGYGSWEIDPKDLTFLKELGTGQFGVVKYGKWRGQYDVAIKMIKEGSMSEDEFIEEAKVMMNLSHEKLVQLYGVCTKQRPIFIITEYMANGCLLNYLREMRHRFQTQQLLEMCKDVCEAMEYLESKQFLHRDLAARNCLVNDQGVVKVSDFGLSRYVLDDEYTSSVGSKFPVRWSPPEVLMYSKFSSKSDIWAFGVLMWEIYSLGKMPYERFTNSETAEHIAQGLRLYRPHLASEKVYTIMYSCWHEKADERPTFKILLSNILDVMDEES

IC50 [1]	IC50 [2]	Structure (SMILES)
0.3 nM	1.7 nM	C=CC(=O)N1CCC[C@@H](Nc2nc(Nc3cnn(CC(C)C)c3)nc3[nH]cc(Cl)c23)C1 [Example 63, (R)-1-(3-((5-chloro-2-((1-isobutyl-1H-pyrazol-4-yl)amino)-7H-pyrrolo[2,3-d]pyrimidin-4-yl)amino)piperidin-1-yl)prop-2-en-1-one]
0.7 nM	1.7 nM	C=CC(=O)N1CCC[C@@H](Nc2nc(Nc3cnn(C(F)F)c3)nc3[nH]nc(Cl)c23)C1 [Example 64, (R)-1-(3-((3-chloro-6-((1-(difluoromethyl)-1H-pyrazol-4-yl)amino)-1H-pyrazolo[3,4-d]pyrimidin-4-yl)amino)piperidin-1-yl)prop-2-en-1-one]
5.5 nM	1.7 nM	C=CC(=O)N1CCC[C@@H](Nc2nc(Nc3cnn(CC(C)C)c3)nc3[nH]ncc23)C1 [Example 65, (R)-1-(3-((6-((1-isobutyl-1H-pyrazol-4-yl)amino)-1H-pyrazolo[3,4-d]pyrimidin-4-yl)amino)piperidin-1-yl)prop-2-en-1-one]
3.7 nM	1.7 nM	C=CC(=O)N1CCC[C@@H](Nc2nc(Nc3cnn(C(C)(C)C)c3)nc3[nH]ncc23)C1 [Example 66, (R)-1-(3-((6-((1-(tert-butyl)-1H-pyrazol-4-yl)amino)-1H-pyrazolo [3,4-d]pyrimidin-4-yl)amino)piperidin-1-yl)prop-2-en-1-one]
5.7 nM	1.7 nM	C=CC(=O)N1CCC[C@@H](Nc2nc(Nc3cnn(C4CC4)c3)nc3[nH]ncc23)C1 [Example 67, (R)-1-(3-((6-((1-cyclopropyl-1H-pyrazol-4-yl)amino)-1H-pyrazolo [3,4-d]pyrimidin-4-yl)amino)piperidin-1-yl)prop-2-en-1-one]
0.7 nM	12.1 nM	C=CC(=O)N1CCC[C@@H](Nc2nc(Nc3ccc(C(=O)N4CCOCC4)cc3)nc3[nH]cc(Cl)c23)C1 [Example 68, (R)-1-(3-((5-chloro-2-((4-(morpholine-4-carbonyl)phenyl)amino)-7H-pyrrolo[2,3-d]pyrimidin-4-yl)amino)piperidin-1-yl)prop-2-en-1-one]
0.3 nM	8.6 nM	C=CC(=O)N1CCC[C@@H](Nc2nc(Nc3cnn(C)c3)nc3[nH]cc(Cl)c23)C1 [Example 69, (R)-1-(3-((5-chloro-2-((1-methyl-1H-pyrazol-4-yl)amino)-7H-pyrrolo[2,3-d]pyrimidin-4-yl)amino)piperidin-1-yl)prop-2-en-1-one]
0.2 nM	2.3 nM	C=CC(=O)N1CCC[C@@H](Nc2nc(Nc3cnn(C(C)(C)C)c3)nc3[nH]cc(Cl)c23)C1 [Example 70, (R)-1-(3-((2-((1-(tert-butyl)-1H-pyrazol-4-yl)amino)-5-chloro-7H-pyrrolo[2,3-d]pyrimidin-4-yl)amino)piperidin-1-yl)prop-2-en-1-one]
2.8 nM	1.3 nM	C=CC(=O)N1CCC[C@@H](Nc2nc(Nc3cnn(C4CCOCC4)c3)nc3[nH]ncc23)C1 [Example 71, (R)-1-(3-((6-((1-(tetrahydro-2H-pyran-4-yl)-1H-pyrazol-4-yl)amino)-1H-pyrazolo[3,4-d]pyrimidin-4-yl)amino)piperidin-1-yl)prop-2-en-1-one]
2.2 nM	1.1 nM	C=CC(=O)N1CCC[C@@H](Nc2nc(Nc3cnn(CCN4CCOCC4)c3)nc3[nH]ncc23)C1 [Example 72, (R)-1-(3-((6-((1-(2-morpholinoethyl)-1H-pyrazol-4-yl)amino)-1H-pyrazolo[3,4-d]pyrimidin-4-yl)amino)piperidin-1-yl)prop-2-en-1-one]
4.4 nM	1.1 nM	C=CC(=O)N1CCC[C@@H](Nc2nc(Nc3cnn(CCC)c3)nc3[nH]ncc23)C1 [Example 73, (R)-1-(3-((6-((1-propyl-1H-pyrazol-4-yl)amino)-1H-pyrazolo[3,4-d]pyrimidin-4-yl)amino)piperidin-1-yl)prop-2-en-1-one]
5.4 nM	1.7 nM	C=CC(=O)N1CCC[C@@H](Nc2nc(Nc3cnn(CCOC)c3)nc3[nH]ncc23)C1 [Example 74, (R)-1-(3-((6-((1-(2-methoayethyl)-1H-pyrazol-4-yl)amino)-1H-pyrazolo[3,4-d]pyrimidin-4-yl)amino)piperidin-1-yl)prop-2-en-1-one]
0.2 nM	4.1 nM	C=CC(=O)N1CCC[C@@H](Nc2nc(Nc3cc(C)ns3)nc3[nH]ccc23)C1 [Example 75, (R)-1-(3-((2-((3-methylisothiazol-5-yl)amino)-7H-pyrrolo[2,3-d]pyrimidin-4-yl)amino)piperidin-1-yl)prop-2-en-1-one]
0.3 nM	1 nM	C=CC(=O)N1CC[C@@H](F)[C@@H](Nc2nc(Nc3cnn(CC)c3)nc3[nH]ccc23)C1 [Example 76, 1-((3S,4R)-3-((2-((1-ethyl-1H-pyrazol-4-yl)amino)-7H-pyrrolo[2,3-d]pyrimidin-4-yl)amino)-4-fluoropiperidin-1-yl)prop-2-en-1-one]
6 nM	1.1 nM	C=CC(=O)N1CC[C@@H](F)[C@@H](Nc2nc(Nc3cnn(CC)c3)nc3[nH]ncc23)C1 [Example 77, 1-((3S,4R)-3-((6-((1-ethyl-1H-pyrazol-4-yl)amino)-1H-pyrazolo [3,4-d]pyrimidin-4-yl)amino)-4-fluoropiperidin-1-yl)prop-2-en-1-one]
0.7 nM	11.5 nM	C=CC(=O)N1CCC[C@@H](Nc2nc(Nc3cnn(C4CC4)c3)nc3[nH]cc(C)c23)C1 [Example 78, (R)-1-(3-((2-((1-cyclopropyl-1H-pyrazol-4-yl)amino)-5-methyl-7H-pyrrolo[2,3-d]pyrimidin-4-yl)amino)piperidin-1-yl)prop-2-en-1-one]
0.4 nM	9.2 nM	C=CC(=O)N1CCC[C@@H](Nc2nc(Nc3cnn(CC)c3)nc3[nH]cc(C)c23)C1 [Example 79, (R)-1-(3-((2-((1-ethyl-1H-pyrazol-4-yl)amino)-5-methyl-7H-pyrrolo[2,3-d]pyrimidin-4-yl)amino)piperidin-1-yl)prop-2-en-1-one]
8.4 nM	33.3 nM	C=CC(=O)N1CCC[C@@H](Nc2nc(Nc3ccc(-n4nc(C)cc4C)cc3)nc3[nH]cc(C)c23)C1 [Example 80, (R)-1-(3-((2-((4-(3,5-dimethyl-1H-pyrazol-1-yl)phenyl)amino)-5-methyl-7H-pyrrolo[2,3-d]pyrimidin-4-yl)amino)piperidin-1-yl)prop-2-en-1-one]
3.8 nM	25.5 nM	C=CC(=O)N1CCC[C@@H](Nc2nc(Nc3ccc4ncsc4c3)nc3[nH]cc(C)c23)C1 [Example 81, (R)-1-(3-((2-(benzo[d]thiazol-6-ylamino)-5-methyl-7H-pyrrolo[2,3-d]pyrimidin-4-yl)amino)piperidin-1-yl)prop-2-en-1-one]
0.3 nM	0.9 nM	C=CC(=O)N1CCC[C@@H](Nc2nc(Nc3cnn(CC)c3)nc3[nH]cc(F)c23)C1 [Example 82, (R)-1-(3-((2-((1-ethyl-1H-pyrazol-4-yl)amino)-5-fluoro-7H-pyrrolo[2,3-d]pyrimidin-4-yl)amino)piperidin-1-yl)prop-2-en-1-one]
1.2 nM	3.4 nM	C=CC(=O)N1CCC[C@@H](Nc2nc(Nc3cc(C)ns3)nc3[nH]cc(F)c23)C1 [Example 83, (R)-1-(3-((5-2-((3-methylisothiazol-5-yl)amino)-7H-pyrrolo[2,3-d]pyrimidin-4-yl)amino)piperidin-1-yl)prop-2-en-1-one]
3.8 nM	6.6 nM	C=CC(=O)N1CC[C@@H](C)[C@@H](Nc2nc(Nc3cnn(CC)c3)nc3[nH]cc(F)c23)C1 [Example 84, 1-((3R,4R)-3-((2-((1-ethyl-1H-pyrazol-4-yl)amino)-5-fluoro-7H-pyrrolo[2,3-d]pyrimidin-4-yl)amino)-4-methylpiperidin-1-yl)prop-2-en-1-one]
1.5 nM	2.2 nM	C=CC(=O)N1CCC[C@@H](Sc2nc(Nc3cnn(CC)c3)nc3[nH]cc(F)c23)C1 [Example 85, (R)-1-(3-((2-((1-ethyl-1H-pyrazol-4-yl)amino)-5-fluoro-7H-pyrrolo[2,3-d]pyrimidin-4-yl)thio)piperidin-1-yl)prop-2-en-1-one]
